Test results reported in the supplement of paper PMC10307832.

Legend:
Assay in all cases: relative viability (nuclei count vs DMSO), 5 days (fraction); higher = more cells survive
[1] = compound: O=C(C[C@H]1NCCC[C@@H]1O)Cn1cnc2cc(Br)c(Cl)cc2c1=O (racemic) [Halofuginone] + CC1(C)CCC(c2ccc(Cl)cc2)=C(CN2CCN(c3ccc(C(=O)NS(=O)(=O)c4ccc(N[C@H](CCN5CCOCC5)CSc5ccccc5)c(S(=O)(=O)C(F)(F)F)c4)cc3)CC2)C1 [Navitoclax] (partner 0.5 µM)
Procedure, shortened: (§1)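 For relative viability, nuclei counts in treated wells were divided by those in vehicle wells. Lung cancer cell lines had been pin-tool dosed in 1536-well plates the day after seeding and cultured for 5 days, then fixed and stained in one step (final 0.05% Triton X-100, 1% formaldehyde, 1 ug/ml Hoechst) and imaged at 4×. Doses were one drug alone or a fixed anchor-drug dose plus five library-drug doses (not always all listed) in √10 steps, and values are duplicate-plate medians.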

[2] = compound: O=C(C[C@H]1NCCC[C@@H]1O)Cn1cnc2cc(Br)c(Cl)cc2c1=O (racemic) [Halofuginone] + C[C@]1(O)C[C@@H](c2nc(-c3ccc4ccc(-c5ccccc5)nc4c3)c3c(N)nccn32)C1 [Linsitinib] (partner 1 µM)
Procedure, shortened: as §1

Decitabine + Lapatinib = compound: Nc1ncn([C@H]2C[C@H](O)[C@@H](CO)O2)c(=O)n1 [Decitabine] + CS(=O)(=O)CCNCc1ccc(-c2ccc3ncnc(Nc4ccc(OCc5cccc(F)c5)c(Cl)c4)c3c2)o1 [Lapatinib] (partner 2 µM)
Procedure, shortened: as §1

Cediranib + Crizotinib = compound: COc1cc2c(Oc3ccc4[nH]c(C)cc4c3F)ncnc2cc1OCCCN1CCCC1 [Cediranib] + C[C@@H](Oc1cc(-c2cnn(C3CCNCC3)c2)cnc1N)c1c(Cl)ccc(F)c1Cl [Crizotinib] (partner 1 µM)
Procedure, shortened: as §1

Cell Line	relative viability ([1]; first compound 0.001 µM)	relative viability ([1]; first compound 0.003162 µM)	relative viability ([1]; first compound 0.01 µM)	relative viability ([1]; first compound 0.03162 µM)	relative viability ([1]; first compound 0.1 µM)	relative viability ([2]; first compound 0.001 µM)	relative viability ([2]; first compound 0.003162 µM)	relative viability ([2]; first compound 0.01 µM)	relative viability ([2]; first compound 0.03162 µM)	relative viability ([2]; first compound 0.1 µM)	relative viability (Decitabine + Lapatinib; first compound 0.04 µM)	relative viability (Decitabine + Lapatinib; first compound 0.1265 µM)	relative viability (Decitabine + Lapatinib; first compound 0.4 µM)	relative viability (Decitabine + Lapatinib; first compound 1.265 µM)	relative viability (Decitabine + Lapatinib; first compound 4 µM)	relative viability (Cediranib + Crizotinib; first compound 0.04 µM)	relative viability (Cediranib + Crizotinib; first compound 0.4 µM)	relative viability (Cediranib + Crizotinib; first compound 1.265 µM)	relative viability (Cediranib + Crizotinib; first compound 4 µM)	relative viability (Cediranib + Crizotinib; first compound 0.1265 µM)
HCC-15	0.704	0.732	0.686	0.651	0.593	0.914	0.908	0.839	0.92	0.688	0.634	0.778	0.223	0.345	0.366	0.93	0.787	0.816	0.828	
HCC-44	0.949	1.02	0.968	1.02	0.568	0.67	0.678	0.594	0.682	0.341	0.84	1	0.298	0.661	0.51	0.803	0.774	0.825	0.935	
HCC-78	0.75	0.758	0.725	0.817	0.435	0.479	0.579	0.484	0.706	0.312	0.819	0.862	0.46	0.411	0.388	0.362	0.301	0.376	0.284	0.417
HCC-366	1.05	1.07	1.04	1.04	0.0551	0.638	0.69	0.692	0.618	0.126	0.938	1.07	0.214	0.164	0.113	0.629	0.423	0.466	0.788	0.574
HCC-827	1.05	1.05	1.01	1.01	0.852	0.968	0.983	0.978	1.02	0.892		0.168	0.187	0.187	0.2	0.931	0.869	0.951	0.976	
HOP-62	1.14	0.785	0.933	1.04	0.873	1.1	1.07	1.09	0.95	0.302	0.962	0.604	0.348	0.1	0.14	0.802	0.886	0.858	1.1	
IA-LM	0.864	0.961	0.702	0.572	0.0557	0.735	0.78	0.547	0.775	0.434	0.503	0.306	0.212	0.169	0.178	0.775	0.718	0.828	0.992	1.28
LC-2-ad	0.555	0.469	0.43	0.459	0.101	0.843	0.796	0.763	0.818	0.264	0.676	0.775	0.317	0.245	0.37	0.462	0.366	0.474	0.419	0.425
